These results are taken from patent US20230303562A1, “PYRAZOLE COMPOUND AND PREPARATION METHOD THEREFOR AND USE THEREOF” (Sichuan Kelun-Biotech Biopharmaceutical Co., Ltd., priority 2020, published 2023).

Data set [1] is described as follows: Pharmacokinetics (PK) study in Balb/c mice. In kind it is in vivo. The settings on record: female Balb/c mice; for bioavailability: mouse, read-out: F (bioavailability); for bioavailability / F (bioavailability): PO 10 mg/kg compared with IV 1 mg/kg. On the procedure:
The example compounds were administered to female Balb/c mice via intravenous injection (IV) and gastric perfusion (PO), respectively, and their pharmacokinetic properties were investigated. The administered doses for IV and PO were 1 mg/kg and 10 mg/kg, respectively. The solvent for IV was 5% DMSO+5% Solutol (15-hydroxystearic acid polyethylene glycol ester)+90% normal saline, the solvent for PO was 0.5% MC ([…] methylcellulose). Whole blood samples were collected at various time points after IV and PO administration, and subjected to EDTA-K2 anticoagulation before test.
Whole blood samples were processed by precipitating proteins and then subjected to LC-MS/MS analysis. The pharmacokinetic parameters were calculated by the non-compartmental model using WinNonlin 6.3 software, and the results were shown in Table 6 below.

A further data set concerns the target TGFβR2 (Homo sapiens (Human), UniProt P37173). The experiment in a line: In vitro enzymatic activity inhibition test (TGFβR2), ADP-Glo Kinase Detection Kit. Type of data set: biochemical. The following applies: MBP substrate, estimated from inhibition at 1000, 100, 10 nM. The protocol: The chemiluminescence signal values were detected after incubation at room temperature for another 30 min.

The target in another data set is TGFβR1 (Homo sapiens (Human), UniProt P36897). Put plainly: In vitro enzymatic activity inhibition test (TGFβR1), ADP-Glo Kinase Detection Kit. In kind it is biochemical. The settings on record: estimated from inhibition at 1000, 100, 10 nM. The protocol: Experimental method: According to the instructions of ADP-Glo™ Kinase Detection Kit (Promega), the inhibitory effect of the compounds of the present invention on the enzymatic activity of TGFβR1 was determined, and the steps were as follows:
TGFβR1 enzyme were pre-incubated with different concentrations of test compounds (1000 nM, 100 nM, 10 nM) at 30° C. for 30 min, TGFβR1 peptide and adenosine triphosphate (ATP) were added to initiate the reaction. The incubation was performed at 30° C. for 3 h, followed by an addition of ADP-Glo™ reagent and incubated at room temperature for 90 min, kinase detection reagent was then added. Chemiluminescence signal values were detected after incubation at room temperature for another 30 min. Taking the solvent group (DMSO) as the negative control and the buffer group (without TGFβR1 enzyme) as the blank control, the percent inhibition rates of different concentrations of compounds were calculated according to the following formula: […]
When the percent inhibition rate was between 30% and 80%, the median inhibitory concentration (IC50) or range of the compound was calculated according to the following formula:
IC50=X×(1−percent inhibition rate (%))/percent inhibition rate (%), wherein X is the concentration of the compound at which the inhibition rate is between 30% and 80%.

For the next data set, the target named is hERG (Homo sapiens (Human), UniProt Q12809). The experiment in a line: Biochemical hERG inhibition test (Predictor hERG fluorescence polarization kit). In kind it is binding. The following applies: competition with Tracer, tested at 10 μM and 1 μM. The protocol:
Kit: Predictor™ hERG fluorescence polarization detection kit (ThermoFisher), the kit contained the following components: positive control compound hERG potassium channel blocker E4031; hERG cell membrane; affinity tracer Tracer; and hERG buffer.
hERG concentration: 1×; Tracer concentration: 1 nM; incubation time: 2 h; BMG PHERAstar FS FP.
The test was carried out according to the kit instructions, and the steps were as follows:
Positive control group: 30 μM positive control compound E4031 was used to replace the test compound, and the experimental method was the same as that of the test group.
Blank control group: hERG buffer was used to replace the test compound without the addition of hERG cell membrane, and the experimental method was the same as that of the test group.
According to the data ratio, the percent inhibition rates (%) of the compounds of the present invention to hERG at different concentrations were calculated, and the ranges of the half inhibitory concentration (IC50) of the compounds were determined.

As usually defined, the bioavailability is dose-corrected exposure relative to a reference, in per cent. What is called Cmax is the peak of the concentration-time curve. One may read the IC50 as the concentration that inhibits the measured activity by half.

Bounds are passed on as bounds.

Chain of TGFβR2 (P37173 23-567): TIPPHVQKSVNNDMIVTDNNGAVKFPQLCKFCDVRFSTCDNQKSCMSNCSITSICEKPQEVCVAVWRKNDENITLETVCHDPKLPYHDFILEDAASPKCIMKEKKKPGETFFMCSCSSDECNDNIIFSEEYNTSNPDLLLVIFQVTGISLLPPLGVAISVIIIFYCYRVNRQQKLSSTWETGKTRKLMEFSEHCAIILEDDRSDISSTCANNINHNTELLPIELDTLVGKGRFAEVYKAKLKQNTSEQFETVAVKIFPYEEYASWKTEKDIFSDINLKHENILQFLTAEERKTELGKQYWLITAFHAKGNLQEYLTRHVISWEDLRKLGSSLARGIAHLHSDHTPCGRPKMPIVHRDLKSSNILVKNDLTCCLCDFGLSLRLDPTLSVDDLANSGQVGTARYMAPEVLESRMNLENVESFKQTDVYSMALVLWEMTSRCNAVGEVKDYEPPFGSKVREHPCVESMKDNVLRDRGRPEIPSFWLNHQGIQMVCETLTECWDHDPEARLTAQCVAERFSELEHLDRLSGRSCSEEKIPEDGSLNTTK
Chain of TGFβR1 (P36897 34-503): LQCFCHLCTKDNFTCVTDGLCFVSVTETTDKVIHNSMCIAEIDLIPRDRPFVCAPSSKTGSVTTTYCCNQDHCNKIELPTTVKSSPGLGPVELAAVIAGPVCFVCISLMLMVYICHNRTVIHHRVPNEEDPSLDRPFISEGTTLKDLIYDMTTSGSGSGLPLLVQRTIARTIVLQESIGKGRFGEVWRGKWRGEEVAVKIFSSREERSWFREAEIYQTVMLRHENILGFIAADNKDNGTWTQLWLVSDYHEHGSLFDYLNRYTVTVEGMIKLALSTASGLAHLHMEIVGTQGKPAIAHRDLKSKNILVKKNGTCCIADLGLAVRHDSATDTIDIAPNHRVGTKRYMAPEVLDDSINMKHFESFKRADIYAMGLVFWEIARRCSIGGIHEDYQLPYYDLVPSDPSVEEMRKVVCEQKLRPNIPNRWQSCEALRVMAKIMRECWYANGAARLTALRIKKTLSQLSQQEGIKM
Chain of hERG (Q12809 whole entry): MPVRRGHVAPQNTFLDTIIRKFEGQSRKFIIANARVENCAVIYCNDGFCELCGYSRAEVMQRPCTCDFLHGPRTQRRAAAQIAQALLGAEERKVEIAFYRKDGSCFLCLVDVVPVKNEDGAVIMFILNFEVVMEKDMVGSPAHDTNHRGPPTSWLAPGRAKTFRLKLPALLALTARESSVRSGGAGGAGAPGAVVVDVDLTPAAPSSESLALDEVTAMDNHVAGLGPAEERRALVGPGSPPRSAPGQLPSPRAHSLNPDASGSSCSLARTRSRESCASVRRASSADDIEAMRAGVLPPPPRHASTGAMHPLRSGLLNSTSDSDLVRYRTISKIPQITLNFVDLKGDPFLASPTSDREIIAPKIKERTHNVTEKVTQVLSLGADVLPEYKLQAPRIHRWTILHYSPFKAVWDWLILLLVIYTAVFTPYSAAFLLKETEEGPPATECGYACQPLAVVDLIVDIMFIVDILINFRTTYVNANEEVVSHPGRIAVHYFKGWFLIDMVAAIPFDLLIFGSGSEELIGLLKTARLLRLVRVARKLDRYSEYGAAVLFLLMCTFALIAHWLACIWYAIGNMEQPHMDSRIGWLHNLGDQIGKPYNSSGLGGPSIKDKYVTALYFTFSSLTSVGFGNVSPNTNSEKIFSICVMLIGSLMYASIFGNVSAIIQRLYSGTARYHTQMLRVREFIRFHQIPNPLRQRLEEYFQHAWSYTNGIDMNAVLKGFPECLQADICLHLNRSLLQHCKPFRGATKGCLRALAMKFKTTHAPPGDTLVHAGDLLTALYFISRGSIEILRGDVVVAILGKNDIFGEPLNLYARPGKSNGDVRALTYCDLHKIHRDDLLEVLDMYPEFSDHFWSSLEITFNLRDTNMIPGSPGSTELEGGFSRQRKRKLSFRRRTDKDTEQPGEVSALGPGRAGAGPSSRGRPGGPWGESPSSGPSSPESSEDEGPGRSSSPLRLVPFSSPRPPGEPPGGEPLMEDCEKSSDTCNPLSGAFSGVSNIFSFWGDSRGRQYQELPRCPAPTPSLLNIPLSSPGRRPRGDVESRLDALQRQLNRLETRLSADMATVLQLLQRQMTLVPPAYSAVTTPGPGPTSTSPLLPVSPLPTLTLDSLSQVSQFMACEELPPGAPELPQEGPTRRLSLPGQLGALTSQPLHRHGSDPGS

In the case of `Cc1cccc(-n2nccc2-c2ccn3ncc(C(N)=O)c3c2)n1` [Example 12, 5-(1-(6-methylpyridin-2-yl)-1H-pyrazol-5-yl)pyrazolo[1,5-a]pyridine-3-carboxamide], in data set [1] (PO, 10 mg/kg, whole blood), the T1/2 was 31.2 ± 10.8 min. Further, the bioavailability in data set [1] (whole blood) amounted to 52.1%.
For `CNc1cc(-c2ccn3ncc(C(N)=O)c3c2)n(-c2cccc(C)n2)n1` [Example 8, 5-(3-(methylamino)-1-(6-methylpyridin-2-yl)-1H-pyrazol-5-yl)pyrazolo[1,5-a]pyridine-3-carboxamide], in data set [1] (PO, 10 mg/kg, whole blood), the T1/2 is 108 ± 21 min. In addition, in data set [1] (whole blood), the bioavailability is 98.1%.
For `Cc1cccc(-n2nc3c(c2-c2ccn4ncc(C(N)=O)c4c2)CCC3)n1` [Example 6, 5-[2-(6-methylpyridin-2-yl)-2,4,5,6-tetrahydrocyclopenteno[c]pyrazol-3-yl]pyrazolo[1,5-a]pyridine-3-carboxamide], in data set [1] (IV, 1 mg/kg, whole blood), the AUClast was determined as 578 ± 4 ng·h/mL, the Cl is 28.4 ± 0.3 mL/min/kg and the Cmax is listed as 1163 ± 58 ng/mL. Moreover, the “F (bioavailability)” value in data set [1] amounted to 61.4 ± 9.5%. In addition, in data set [1] (listed as Example VI), the “F (bioavailability)” value turned out to be 61.4%. Besides, in data set [1] (PO, 10 mg/kg, whole blood), the AUClast was found to be 3586 ± 563 ng·h/mL, the Cmax amounted to 7440 ± 226 ng/mL and the T1/2 turned out to be 27.6 ± 11.4 min. Further, the T1/2 in data set [1] (PO, 10 mg/kg, whole blood, listed as Example VI) worked out at 27.6 min.
On to `Cc1cccc(-n2nccc2-c2ccc3ncsc3c2)n1` [Example 1, 6-(1-(6-methylpyridin-2-yl)-1H-pyrazol-5-yl)benzo[d]thiazole], for which the results for the IC50 at TGFβR2, on TGFβR1 and on hERG were over 1000 nM, 48.6 ± 18.6 nM and over 10 µM, respectively.
